Results from patent US8084612B2, “Proline analogs as ligands for cannabinoid receptors” (Purdue Pharma L.P., priority 2008, dated 2011).

Tests used:
[1] = target: CB2 receptor (Homo sapiens, UniProt P34972); assay: Competition binding assay, [3H]-CP55,940 displacement, CB2 CHO-K1 membranes
Procedure: (§1) CHO-K1 cells expressing CB1 or CB2 receptors (which were purchased from EuroScreen; Brussels, Belgium) were grown to confluency (20-40×10^6 cells) in 10 cm dishes. Cells were lysed by adding 10 mL/dish ice-cold hypotonic buffer (2.5 mM MgCl2, 50 mM HEPES, pH 7.4). Cell lysates were removed using a cell scraper and homogenized 30 seconds with a BioSpec Tissue Tearer™ (Racine, Wis.). Membranes were collected by centrifugation at 30,000 g for 15 min at 4° C. and pellets resuspended in hypotonic buffer to a final concentration of 1-3 mg/mL.
(§2) Membranes (CB1 or CB2 CHO-K1: 1 μg/well) were incubated at room temperature for 1 hour with 0.5 nM [^3H]-CP55,940 in 500 μL of assay buffer (5 mM MgCl2, 5 mg/mL BSA, 2.5 mM EDTA and 50 mM Tris-HCl, pH 7.4) in the presence of increasing concentrations of unlabeled competitors, e.g. WIN55, 212-2 (a CB1 receptor agonist available from Sigma-Aldrich, St. Louis, Mo.) or ligand of interest. The final concentration of DMSO was 5% . Reactions were terminated by rapid filtration using a 96-well filtration apparatus (Brandel, Gaithersburg, Md.) onto GE/C filter plates (PerkinElmer Life Sciences; Boston, Mass.) pretreated with polyethylenimine 0.5% (w/v). The plates were washed three times with 500 μL of ice-cold assay buffer. Filter plates were subsequently dried at 50° C. for 2-3 hours. Fifty microliters per well BetaScint 20 (PerkinElmer) scintillation cocktail was added and plates counted in a TopCount (PerkinElmer) for 1 min/well.
(§3) Data were analyzed using GraphPad PRISM™, v. […] The concentrations of unlabeled competitors that yield 50% displacement (IC50 values) were calculated from each curve by a non-linear regression analysis fined to a one-site model. In separate experiments, equilibrium dissociation constants (Kd values) were determined for each receptor. […] All Ki values are presented as mean±SEM of n determinations.

[2] = target: T1, CB1 receptor (Homo sapiens, UniProt P21554); assay: Competition binding assay, [3H]-CP55,940 displacement, CB1 CHO-K1 membranes
Procedure: as §1, §2, §3

[3] = target: T1, CB1 receptor; assay: GTPγ[35S] functional binding assay, CB1 membranes; assay type: biochemical; set-up: Brussels, Belgium; host or cells: CHO-K1; Emax: reference not given here; conditions: GTPγ[35S] binding; for EC50: n.a. = no activity detected at the highest concentration tested, read-out: CB1 EC 50

Chain of CB2 receptor (P34972 whole entry): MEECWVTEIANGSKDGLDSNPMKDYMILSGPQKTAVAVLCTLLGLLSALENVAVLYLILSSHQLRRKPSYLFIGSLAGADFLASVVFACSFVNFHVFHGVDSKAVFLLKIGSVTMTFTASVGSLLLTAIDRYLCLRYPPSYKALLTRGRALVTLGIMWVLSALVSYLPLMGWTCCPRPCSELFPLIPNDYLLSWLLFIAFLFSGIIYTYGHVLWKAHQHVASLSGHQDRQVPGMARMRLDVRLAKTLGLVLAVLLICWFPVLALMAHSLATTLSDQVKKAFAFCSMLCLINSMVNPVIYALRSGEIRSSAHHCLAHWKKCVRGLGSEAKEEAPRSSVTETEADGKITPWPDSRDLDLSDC
T1 sequence (P21554 whole entry): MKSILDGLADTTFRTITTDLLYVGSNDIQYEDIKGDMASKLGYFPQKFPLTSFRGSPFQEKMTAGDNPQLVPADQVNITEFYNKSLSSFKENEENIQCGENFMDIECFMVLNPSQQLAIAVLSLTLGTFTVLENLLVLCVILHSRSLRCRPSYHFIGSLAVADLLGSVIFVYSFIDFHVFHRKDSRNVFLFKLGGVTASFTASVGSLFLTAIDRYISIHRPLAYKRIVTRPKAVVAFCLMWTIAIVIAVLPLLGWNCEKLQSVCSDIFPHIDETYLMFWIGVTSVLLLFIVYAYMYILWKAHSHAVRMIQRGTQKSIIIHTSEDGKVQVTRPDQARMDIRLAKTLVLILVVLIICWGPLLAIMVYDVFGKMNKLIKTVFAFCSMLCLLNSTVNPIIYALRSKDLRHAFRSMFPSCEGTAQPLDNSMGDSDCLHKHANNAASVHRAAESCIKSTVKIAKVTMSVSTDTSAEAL

| Compound | Ki [1] [nM] | Ki [2] [nM] | Emax [3] [%] | EC50 [3] [nM] |
| --- | --- | --- | --- | --- |
| O=C(Nc1sc2c(c1C(=O)N1CCCCC1)CCCCC2)[C@H]1CCCN1S(=O)(=O)c1ccccc1 [AAA(a)] | 4.3 | 4.7 | 80 | 702 |
| O=C(Nc1sc2c(c1C(=O)N1CCCCC1)CCCCC2)[C@@H]1CCCN1S(=O)(=O)c1ccccc1 [AAA(b)] | – | 366 | 8 | – |
| O=C(Nc1sc2c(c1C(=O)N1CCCCC1)CCCCC2)[C@H]1CCCN1S(=O)(=O)c1ccc(F)cc1 [AAB(a)] | 35.8 | 43.5 | 68 | 1910 |
| Cc1ccc(S(=O)(=O)N2CCC[C@@H]2C(=O)Nc2sc3c(c2C(=O)N2CCCCC2)CCCCC3)cc1 [AAC(a)] | 154 | 261 | 8 | – |
| CS(=O)(=O)N1CCC[C@@H]1C(=O)Nc1sc2c(c1C(=O)N1CCCCC1)CCCCC2 [AAD(a)] | – | 2190 | – | – |
| O=C(Nc1sc2c(c1C(=O)N1CCCCC1)CCCCC2)[C@H]1CCCN1S(=O)(=O)c1cccs1 [AAF(a)] | 4.5 | 7.3 | 150 | 425 |
| CCOC(=O)c1c(NC(=O)[C@H]2CCCN2S(=O)(=O)c2ccccc2)sc2c1CCCCC2 [ABE(a)] | 11.5 | 15.1 | – | > 25000 |
| O=C(Nc1sccc1C(=O)N1CCCCC1)[C@H]1CCCN1S(=O)(=O)c1ccccc1 [CAA(a)] | – | 1890 | – | – |
| O=C(Nc1ccsc1C(=O)N1CCCCC1)[C@H]1CCCN1S(=O)(=O)c1ccccc1 [DAA(a)] | – | 1240 | – | – |
| O=C(Nc1sc2c(c1C(=O)N1CCCCC1)CCCCC2)[C@H]1CCCN1C(=O)c1ccccc1 [EAA(a)] | – | 9290 | – | – |
| O=C(Nc1ccccc1C(=O)N1CCCCC1)[C@H]1CCCN1S(=O)(=O)c1ccccc1 [GAA(a)] | – | 1130 | – | – |
